For 17 molecules, IC50 results are on record in US8653092B2, “Tetrahydro-pyrido-pyrimidine derivatives” (Novartis AG, priority 2010, dated 2014).

In one assay the target is PI3K alpha (Homo sapiens (Human), UniProt P42336). Kind of assay: Enzymatic PI3K alpha isoform inhibition (lipid kinase, Kinase-Glo luminescence). The settings on record: enzymatic assay. The assay is classed as biochemical. On the technique in general: In Kinase-Glo more light means more ATP remaining.
The target of assay [1] is human phosphoinositide-3 kinase (PI3K) delta (Homo sapiens (Human), UniProt O00329). Nature of the assay: PI3K-mediated Akt 1/2 (S473) phosphorylation in Rat-1 cells (AlphaScreen SureFire). It counts as cell-based. The following applies: Rat-1 cells overexpressing myristoylated human PI3K delta, p-Akt (Ser473); read-out: Cell PI3Kδ/ IC50 [umol l − 1]. The procedure: Rat-1 cells stably overexpressing a myristoylated form of the catalytic subunit of human phosphoinositide-3 kinase (PI3K) alpha, beta or delta were plated in 384-well plates at a density of 7500 (PI3K alpha), 6200 (PI3K beta), or 4000 (PI3K delta) cells in 30 ul complete growth medium (Dulbecco's modified Eagle's medium (DMEM high glucose) supplemented with 10% (v/v) fetal bovine serum, 1% (v/v) MEM non essential amino acids, 10 mM HEPES, 2 mM L-glutamine, 10 μg/mL puromycin and 1% (v/v) Penicillin/Streptomycin) and were incubated at […]/5% CO2/95% humidity for 24 h. Compounds were diluted in 384-well compound plates to obtain 8-point serial dilutions for 40 test compounds in 90% DMSO, as well as 4 reference compounds plus 16 high controls and 16 low (inhibited) controls. Predilution plates were prepared by dispensing pipetting 250 nl of compound solutions into 384-well polypropylen plates using a Hummingwell nanoliter dispensor. Compounds were prediluted by the addition of 49.75 ul complete growth medium. 10 ul of prediluted compound solution were transferred to the cell plate using a 384-well pipettor, resulting in a final DMSO concentration of 0.11%. Cells were incubated for 1 h at […]/5% CO2/95% humidity. The supernatant was removed, the cells were lysed in 20 ul of lysis buffer for AlphaScreen® SureFire® detection.
human phosphoinositide-3 kinase (PI3K) delta, sequence (O00329 whole entry): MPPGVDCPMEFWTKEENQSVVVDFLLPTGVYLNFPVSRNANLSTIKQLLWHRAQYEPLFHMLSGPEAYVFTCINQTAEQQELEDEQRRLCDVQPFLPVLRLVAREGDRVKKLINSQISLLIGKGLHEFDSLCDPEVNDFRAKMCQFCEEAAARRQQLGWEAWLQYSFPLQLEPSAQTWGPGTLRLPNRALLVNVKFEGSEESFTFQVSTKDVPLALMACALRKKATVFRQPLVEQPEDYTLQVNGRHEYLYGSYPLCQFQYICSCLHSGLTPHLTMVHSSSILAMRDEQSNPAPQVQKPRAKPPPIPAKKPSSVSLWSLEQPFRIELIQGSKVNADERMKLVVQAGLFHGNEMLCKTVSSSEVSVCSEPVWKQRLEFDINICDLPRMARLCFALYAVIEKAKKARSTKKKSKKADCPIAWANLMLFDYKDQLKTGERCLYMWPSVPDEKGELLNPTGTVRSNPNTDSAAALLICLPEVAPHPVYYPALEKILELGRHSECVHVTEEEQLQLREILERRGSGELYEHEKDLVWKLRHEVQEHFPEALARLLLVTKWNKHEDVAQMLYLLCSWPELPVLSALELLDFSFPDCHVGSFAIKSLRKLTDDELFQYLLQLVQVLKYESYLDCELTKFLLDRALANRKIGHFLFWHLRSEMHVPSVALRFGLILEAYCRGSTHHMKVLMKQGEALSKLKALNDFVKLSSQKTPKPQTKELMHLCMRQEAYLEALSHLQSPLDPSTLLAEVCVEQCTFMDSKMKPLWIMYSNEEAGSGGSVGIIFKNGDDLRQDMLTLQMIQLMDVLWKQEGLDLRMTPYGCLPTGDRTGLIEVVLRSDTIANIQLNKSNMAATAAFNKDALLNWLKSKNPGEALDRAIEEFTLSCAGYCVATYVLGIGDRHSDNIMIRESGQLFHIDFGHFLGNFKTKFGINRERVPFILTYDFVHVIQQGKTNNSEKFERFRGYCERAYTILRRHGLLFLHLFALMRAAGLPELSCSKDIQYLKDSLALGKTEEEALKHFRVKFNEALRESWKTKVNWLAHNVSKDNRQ
human phosphoinositide-3 kinase (PI3K) delta, sequence (Q63787 whole entry partner): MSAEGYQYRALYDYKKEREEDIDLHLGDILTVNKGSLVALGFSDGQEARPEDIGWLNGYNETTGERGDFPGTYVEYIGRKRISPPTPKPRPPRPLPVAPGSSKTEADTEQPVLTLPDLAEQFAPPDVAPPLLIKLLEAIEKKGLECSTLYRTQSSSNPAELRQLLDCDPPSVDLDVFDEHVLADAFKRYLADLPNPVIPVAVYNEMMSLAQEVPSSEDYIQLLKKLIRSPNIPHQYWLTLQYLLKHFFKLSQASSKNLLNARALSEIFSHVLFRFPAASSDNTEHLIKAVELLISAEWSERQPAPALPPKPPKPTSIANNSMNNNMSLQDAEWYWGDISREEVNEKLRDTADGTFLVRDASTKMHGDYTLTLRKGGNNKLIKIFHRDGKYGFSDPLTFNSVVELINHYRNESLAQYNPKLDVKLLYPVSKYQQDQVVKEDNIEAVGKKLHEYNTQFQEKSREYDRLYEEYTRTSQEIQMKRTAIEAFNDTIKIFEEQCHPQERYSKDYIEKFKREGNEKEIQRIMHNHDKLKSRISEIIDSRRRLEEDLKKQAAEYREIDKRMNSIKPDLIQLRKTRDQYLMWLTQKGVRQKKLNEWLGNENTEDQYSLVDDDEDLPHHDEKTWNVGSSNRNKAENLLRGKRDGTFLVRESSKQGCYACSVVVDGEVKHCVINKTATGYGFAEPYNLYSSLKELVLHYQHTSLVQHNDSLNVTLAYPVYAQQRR
For detection of p-AKT (Ser473), the SureFire® p-Akt 1/2 (Ser473) Assay Kit (PerkinElmer, U.S.A) was used. 5 ul of cell lysate was transferred to 384-well low volume Proxiplates for detection using a 384-well pipettor. Addition of AlphaScreen® SureFire® reagents was done according to the manufacturer's protocol. First, 5 ul of reaction buffer plus activation buffer mix containing AlphaScreen® acceptor beads was added, the plate was sealed, and incubated on a plate shaker for 2 hours at room temperature. Second, 2 ul of dilution buffer containing AlphaScreen® donor beads was added, and the plate was incubated on plate shaker as above for a further 2 hours. The plate was read on an AlphaScreen® compatible plate reader, using standard AlphaScreen® settings.
A general note: Alpha assays give light when donor and acceptor beads are brought close together.

For another assay, the system named is murine B cells. Kind of assay: Murine B cell activation: CD86 upregulation after anti-IgM stimulation. The settings on record: read-out: mCD86/IC50 CD86 [nmol l − 1]. It counts as cell-based, mouse. The procedure: Spleens from Balb/c mice were collected, splenocytes were isolated and washed twice with RPMI containing 10% foetal bovine serum (FBS), 10 mM HEPES, 100 Units/mL penicilline/streptomycine. RPMI supplemented in this way is subsequently referred to as medium. The cells were adjusted to 2.5×10^6 cells/mL in medium and 200 μl cell suspension (5×10^6 cells) were added to the appropriate wells of 96 well plates.
Then the cells were stimulated by adding 50 μl anti-IgM mAb in medium (final concentration: 30 μg/mL). After incubation for 24 hours at 37° C., the cells were stained with the following antibody cocktails: anti-mouse CD86-FITC, anti-mouse CD69-PerCP-Cy5.5, anti-mouse CD19-PerCP for the assessment of B cells, and anti-mouse CD3-FITC, anti-mouse CD69-PE for the assessment of T cells (2 μl of each antibody/well). After one hour at room temperature (RT) in the dark the cells were transferred to 96 Deepwell plates. The cells were washed once with 1 mL PBS containing 2% FBS and after re-suspension in 200 μl the samples were analyzed on a FACS Calibur flow cytometer. Lymphocytes were gated in the FSC/SSC dot plot according to size and granularity and further analyzed for expression of CD19, CD3 and activation markers (CD86, CD69). Data were calculated from dot blots as percentage of cells positively stained for activation markers within the CD19+ or CD3+ population using BD CellQest Software.
For assessing the inhibitory property of compounds, compounds were first dissolved and diluted in DMSO followed by a 1:50 dilution in medium. Splenocytes from Balb/c mice were isolated, re-suspended and transfered to 96 well plates as described above (200 μl/well). The diluted compounds or solvent were added to the plates (25 μl) and incubated at 37° C. for 1 hour. Then the cultures were stimulated with 25 μl anti-IgM mAb/well (final concentration […]) for 24 hours at 37° C. and stained with anti-mouse CD86-FITC and anti-mouse CD19-PerCP (2 μl of each antibody/well). CD86 expression on CD19 positive B cells was quantified by flow cytometry as described above.

The target in the next assay is PI3K delta (Homo sapiens (Human), UniProt O00329). Kind of assay: Enzymatic PI3K delta isoform inhibition (lipid kinase, Kinase-Glo luminescence). It counts as biochemical.
PI3K delta, sequence (O00329 other isoform, or with tags, fused parts or gaps linker GGGGGG): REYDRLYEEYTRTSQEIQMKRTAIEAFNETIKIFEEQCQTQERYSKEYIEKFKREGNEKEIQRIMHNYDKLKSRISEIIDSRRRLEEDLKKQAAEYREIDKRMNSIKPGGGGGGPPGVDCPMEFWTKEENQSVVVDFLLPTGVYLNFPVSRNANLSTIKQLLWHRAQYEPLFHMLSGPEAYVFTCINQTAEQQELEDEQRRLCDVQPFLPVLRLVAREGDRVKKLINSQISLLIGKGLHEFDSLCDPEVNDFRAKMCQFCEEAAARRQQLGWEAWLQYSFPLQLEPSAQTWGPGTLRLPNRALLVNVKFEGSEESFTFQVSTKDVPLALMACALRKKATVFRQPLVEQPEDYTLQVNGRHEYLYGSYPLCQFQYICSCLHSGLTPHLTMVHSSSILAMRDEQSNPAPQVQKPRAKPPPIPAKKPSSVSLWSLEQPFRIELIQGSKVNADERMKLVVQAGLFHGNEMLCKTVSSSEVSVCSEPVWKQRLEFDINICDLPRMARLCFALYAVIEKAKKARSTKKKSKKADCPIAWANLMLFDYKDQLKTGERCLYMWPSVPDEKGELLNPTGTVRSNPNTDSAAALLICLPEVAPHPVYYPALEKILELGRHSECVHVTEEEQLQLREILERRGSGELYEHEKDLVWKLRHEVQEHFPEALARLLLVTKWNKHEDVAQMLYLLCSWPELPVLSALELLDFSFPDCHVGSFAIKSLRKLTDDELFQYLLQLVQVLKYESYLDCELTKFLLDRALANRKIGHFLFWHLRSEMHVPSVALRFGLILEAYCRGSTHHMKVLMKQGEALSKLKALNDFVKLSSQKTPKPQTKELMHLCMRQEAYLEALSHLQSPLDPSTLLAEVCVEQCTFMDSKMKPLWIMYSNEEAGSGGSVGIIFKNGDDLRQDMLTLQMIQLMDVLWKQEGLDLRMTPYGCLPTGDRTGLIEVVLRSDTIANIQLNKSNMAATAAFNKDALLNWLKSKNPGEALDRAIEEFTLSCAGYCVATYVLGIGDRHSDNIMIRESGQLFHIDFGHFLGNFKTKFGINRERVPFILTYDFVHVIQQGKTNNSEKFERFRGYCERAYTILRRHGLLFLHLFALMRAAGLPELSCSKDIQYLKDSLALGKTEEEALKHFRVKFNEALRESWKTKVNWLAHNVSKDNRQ
Setting [2] is: Balb/c mouse splenocytes, anti-IgM 24 h, CD86 on CD19+ B cells.

SMILES strings stand for the structures. Read-outs that look alike come from different tables or passages of the source.

PI3K alpha, sequence (P42336 other isoform, or with tags, fused parts or gaps): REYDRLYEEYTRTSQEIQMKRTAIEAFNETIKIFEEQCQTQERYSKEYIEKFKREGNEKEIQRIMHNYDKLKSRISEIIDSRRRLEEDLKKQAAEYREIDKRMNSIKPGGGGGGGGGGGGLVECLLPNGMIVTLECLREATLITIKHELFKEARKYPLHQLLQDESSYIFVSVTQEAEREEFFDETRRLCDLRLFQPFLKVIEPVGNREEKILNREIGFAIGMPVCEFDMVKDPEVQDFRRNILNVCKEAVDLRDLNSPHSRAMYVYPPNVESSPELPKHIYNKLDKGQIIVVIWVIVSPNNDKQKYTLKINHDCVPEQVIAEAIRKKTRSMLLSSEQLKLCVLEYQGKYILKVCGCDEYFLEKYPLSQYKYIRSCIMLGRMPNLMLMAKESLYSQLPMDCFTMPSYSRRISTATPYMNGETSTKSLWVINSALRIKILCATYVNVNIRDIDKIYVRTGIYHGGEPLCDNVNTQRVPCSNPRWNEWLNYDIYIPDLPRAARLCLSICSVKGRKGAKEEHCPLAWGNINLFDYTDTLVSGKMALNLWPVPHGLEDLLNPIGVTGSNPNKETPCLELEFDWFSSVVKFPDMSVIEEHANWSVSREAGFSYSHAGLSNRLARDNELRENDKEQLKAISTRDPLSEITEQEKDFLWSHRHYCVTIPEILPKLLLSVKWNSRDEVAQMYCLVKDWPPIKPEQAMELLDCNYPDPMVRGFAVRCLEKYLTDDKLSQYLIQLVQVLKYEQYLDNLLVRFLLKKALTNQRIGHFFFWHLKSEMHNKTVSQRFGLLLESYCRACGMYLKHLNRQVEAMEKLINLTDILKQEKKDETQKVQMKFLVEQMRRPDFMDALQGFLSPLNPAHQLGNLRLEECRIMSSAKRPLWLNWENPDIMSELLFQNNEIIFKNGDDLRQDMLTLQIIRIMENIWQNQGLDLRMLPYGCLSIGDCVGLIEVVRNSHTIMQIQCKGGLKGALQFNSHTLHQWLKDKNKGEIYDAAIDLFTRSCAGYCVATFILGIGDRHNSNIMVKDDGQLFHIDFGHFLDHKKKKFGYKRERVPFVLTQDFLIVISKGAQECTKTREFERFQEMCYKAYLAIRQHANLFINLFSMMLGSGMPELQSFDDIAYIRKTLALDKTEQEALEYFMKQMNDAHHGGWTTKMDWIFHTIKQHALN

Consider `COc1ncc(N2CCc3ncnc(N[C@H]4CCN(C(=O)C5CCOCC5)C4)c3C2)cc1C(F)(F)F` [Example 68, {(S)-3-[6-(6-Methoxy-5-trifluoromethyl-pyridin-3-yl)-5,6,7,8-tetrahydro-pyrido[4,3-d]pyrimidin-4-ylamino]-pyrrolidin-1-yl}-(tetrahydro-pyran-4-yl)-methanone], for which the IC50 against PI3K alpha worked out at 43 nM; in assay [1], 53 nM; with murine B cells (setting [2]) it was 14.9 nM; on PI3K delta (enzymatic assay), 7 nM.
In the same order, the values of `COc1ncc(N2CCc3ncnc(O[C@H]4CCN(c5ccccn5)C4)c3C2)cc1C(F)(F)F` [Example 65, 6-(6-Methoxy-5-trifluoromethyl-pyridin-3-yl)-4-((S)-1-pyridin-2-yl-pyrrolidin-3-yloxy)-5,6,7,8-tetrahydro-pyrido[4,3-d]pyrimidine] are 738 nM, 191 nM, 570 nM and 23 nM.
On to `COc1ncc(N2CCc3ncnc(N[C@H]4CCN(C(=O)C5CCOCC5)C4)c3C2)cc1Cl` [Example 82, {(S)-3-[6-(5-Chloro-6-methoxy-pyridin-3-yl)-5,6,7,8-tetrahydro-pyrido[4,3-d]pyrimidin-4-ylamino]-pyrrolidin-1-yl}-(tetrahydro-pyran-4-yl)-methanone], for which the IC50 turned out to be 66 nM on PI3K alpha, 116 nM in assay [1], 46.2 nM in the assay with murine B cells (setting [2]) and 3 nM on PI3K delta (enzymatic assay).
In the case of `CCC(=O)N1CC[C@H](Nc2ncnc3c2CN(c2cnc(OC)c(C(F)(F)F)c2)CC3)C1` [Example 67, 1-{(S)-3-[6-(6-Methoxy-5-trifluoromethyl-pyridin-3-yl)-5,6,7,8-tetrahydro-pyrido[4,3-d]pyrimidin-4-ylamino]-pyrrolidin-1-yl}-propan-1-one], the IC50 on PI3K alpha was 262 nM; in the assay on murine B cells (Mus musculus, 24 h) it was 48.3 nM.
Regarding `COc1ncc(N2CCc3ncnc(O[C@H]4CCN(C(=O)N5CCC(O)CC5)C4)c3C2)cc1C(F)(F)F` [Example 87, (4-Hydroxy-piperidin-1-yl)-{(S)-3-[6-(6-methoxy-5-trifluoromethyl-pyridin-3-yl)-5,6,7,8-tetrahydro-pyrido[4,3-d]pyrimidin-4-yloxy]-pyrrolidin-1-yl}-methanone], the IC50 against PI3K alpha amounted to 452 nM; on PI3K delta (enzymatic assay) it was 12 nM.
`COc1ncc(N2CCc3ncnc(O[C@H]4CCN(C(=O)c5ccncc5)C4)c3C2)cc1C(F)(F)F` [Example 47, {(S)-3-[6-(6-Methoxy-5-trifluoromethyl-pyridin-3-yl)-5,6,7,8-tetrahydro-pyrido[4,3-d]pyrimidin-4-yloxy]-pyrrolidin-1-yl}-pyridin-4-yl-methanone]: the IC50 against PI3K alpha came to 656 nM; against PI3K delta (enzymatic assay), 25 nM.
On the same counts, the results for `COc1ncc(N2CCc3ncnc(N[C@H]4CCN(C(=O)[C@H]5CC[C@H](O)CC5)C4)c3C2)cc1C(F)(F)F` (single isomer, unassigned) [Example 76] are 106 nM and 7 nM.
On the same counts, the results for `COc1ccc(N2CCc3ncnc(O[C@H]4CCN(C(=O)C5CCOCC5)C4)c3C2)cn1` [Example 95, {(S)-3-[6-(6-Methoxy-pyridin-3-yl)-5,6,7,8-tetrahydro-pyrido[4,3-d]pyrimidin-4-yloxy)pyrrolidin-1-yl}-(tetrahydro-pyran-4-yl)-methanone] are 757 nM and 53 nM.
Regarding `COc1ncc(N2CCc3ncnc(O[C@H]4CCN(C(=O)c5cnccn5)C4)c3C2)cc1C(F)(F)F` [Example 52, {(S)-3-[6-(6-Methoxy-5-trifluoromethyl-pyridin-3-yl)-5,6,7,8-tetrahydro-pyrido[4,3-d]pyrimidin-4-yloxy]-pyrrolidin-1-yl}-pyrazin-2-yl-methanone], the IC50 amounted to 1020 nM at PI3K alpha and 46 nM against PI3K delta (enzymatic assay).
In the same order, the values of `COc1ncc(N2CCc3ncnc(O[C@H]4CCN(C(=O)C5CCOCC5)C4)c3C2)cc1C#N` [Example 3, 2-Methoxy-5-{4-[(S)-1-(tetrahydro-pyran-4-carbonyl)-pyrrolidin-3-yloxy]-7,8-dihydro-5H-pyrido[4,3-d]pyrimidin-6-yl}-nicotinonitrile] are 2390 nM and 15 nM.
In the same order, the values of `COc1ncc(N2CCc3ncnc(OC4CN(C(=O)C5CCOCC5)C4)c3C2)cc1C(F)(F)F` [Example 58, {3-[6-(6-Methoxy-5-trifluoromethyl-pyridin-3-yl)-5,6,7,8-tetrahydro-pyrido[4,3-d]pyrimidin-4-yloxy]-azetidin-1-yl}-(tetrahydro-pyran-4-yl)-methanone] are 3060 nM and 30 nM.
Consider `COc1ncc(N2CCc3ncnc(O[C@H]4CCN(c5ncccn5)C4)c3C2)cc1C(F)(F)F` [Example 66, 6-(6-Methoxy-5-trifluoromethyl-pyridin-3-yl)-4-((S)-1-pyrimidin-2-yl-pyrrolidin-3-yloxy)-5,6,7,8-tetrahydro-pyrido[4,3-d]pyrimidine], for which the IC50 came out at 1280 nM at PI3K alpha and 14 nM at PI3K delta.
Consider `COc1ncc(N2CCc3ncnc(O[C@H]4CCN(C(=O)c5coc(C)n5)C4)c3C2)cc1C` [Example 14, {(S)-3-[6-(6-Methoxy-5-methyl-pyridin-3-yl)-5,6,7,8-tetrahydro-pyrido[4,3-d]pyrimidin-4-yloxy]-pyrrolidin-1-yl}-(2-methyl-oxazol-4-yl)-methanone], for which the IC50 against PI3K alpha was found to be 1830 nM; on PI3K delta (enzymatic assay), 13 nM.
On the same counts, the results for `COc1ncc(N2CCc3ncnc(O[C@H]4CCN(C(=O)c5ccc(=O)[nH]c5)C4)c3C2)cc1C` [Example 19, 5-{(S)-3-[6-(6-Methoxy-5-methyl-pyridin-3-yl)-5,6,7,8-tetrahydro-pyrido[4,3-d]pyrimidin-4-yloxy]-pyrrolidine-1-carbonyl}-1H-pyridin-2-one] are 3060 nM and 33 nM.
In the case of `COc1cc(N2CCc3ncnc(O[C@H]4CCN(C(=O)c5cnco5)C4)c3C2)cnc1OC` [Example 22, {(S)-3-[6-(5,6-Dimethoxy-pyridin-3-yl)-5,6,7,8-tetrahydro-pyrido[4,3-d]pyrimidin-4-yloxy]-pyrrolidin-1-yl}-oxazol-5-yl-methanone], the IC50 was 580 nM on PI3K alpha and 8 nM at PI3K delta (enzymatic assay).
On the same counts, the results for `COc1ncc(N2CCc3ncnc(O[C@H]4CCN(C(=O)c5cnn(C)c5)C4)c3C2)cc1C(F)(F)F` [Example 54, {(S)-3-[6-(6-Methoxy-5-trifluoromethyl-pyridin-3-yl)-5,6,7,8-tetrahydro-pyrido[4,3-d]pyrimidin-4-yloxy]-pyrrolidin-1-yl}-(1-methyl-1H-pyrazol-4-yl)-methanone] are 384 nM and 5 nM.
For `COc1ncc(N2CCc3ncnc(O[C@H]4CCN(C(=O)N5CCN(C(C)=O)CC5)C4)c3C2)cc1C(F)(F)F` [Example 89, 1-(4-{(S)-3-[6-(6-methoxy-5-trifluoromethyl-pyridin-3-yl)-5,6,7,8-tetrahydro-pyrido[4,3-d]pyrimidin-4-yloxy]-pyrrolidine-1-carbonyl}-piperazin-1-yl)-ethanone], the figures for the IC50 on PI3K alpha and on PI3K delta (enzymatic assay) were 1190 nM and 29 nM, respectively.
